Data as given in PMC9714824, “Hexapeptides from mammalian inhibitory hormone hunt activate and inactivate nematode reproduction” (PLOS ONE, 2022).

How the values were obtained:
[1] = system: Caenorhabditis elegans; conditions: cited from earlier work
Excerpt: As a control compound there was synthesized EPL030, having the aa sequence KLKMNGKNIEPVFT. This is a scrambling of EPL001’s sequence, based on cards drawn at random by one of us (CRM). […] The figures for fecundity were EPL001 +43 ... || Returning to EPL030, the scrambled-sequence EPL001 comparator, this has engendered perplexity by displaying the same activity as EPL001 across multiple mammalian systems. Thus, EPL030 suppressed human prostate cancer cells in vitro more than EPL001 in two laboratories and the proliferation of rat bone marrow cells in vitro in a third.

[2] = system: rat bone marrow cells; assay: Bone marrow cell assay, time-lapse cell counts over 24h; assay type: cell-based; conditions: 1μM in the medium, controls increased by about the same percentage
Experimental: The method has been described previously at length. Bone marrow cells, consisting of various cell types including mesenchymal stem cells and fibroblasts, were cultured from adult male rats (Rattus norvegicus, SD strain). These cells were passaged from a growing primary stock in a T75 tissue culture flask (Sarstedt) into a 48 well tissue culture plate (IWAKI), with a cell density of 1 x 10^5/ml. The cell culture media, henceforth referred to as ‘supplemented a-MEMS,’ comprised α-MEMS media supplemented with 10% FCS and 1% penicillin/streptomycin (all Life Technologies, Carlsbad, CA, US). On the day of peptide addition to the cells, the supplemented α-MEMS was gently removed and fresh supplemented α-MEMS added, with 10% test material by volume to achieve micromolar concentrations, untreated controls receiving just fresh supplemented α-MEMS. (For dose levels see legends in respective result figures) All samples were filter sterilised using a Millex-GV […] syringe filter unit (Merck, Kenilworth, NJ, USA). The cells were imaged for 24 h using an incubated Zeiss Axiovert 135M microscope with a Prior Proscan II motorised stage, at 37 °C with a 5% CO2 in air feed. Each well of the 48-well tissue culture plate was then imaged for 24h every 5 min using Metamorph software (MDS Analytical Technologies, Wokingham, UK), with each well having four fields of view. The viability and cell numbers were reviewed by analysing the images captured over the 24h period and cell counts were taken at selected time points using the Metamorph software.
Fig 6 Bone marrow cells in culture exposed to long peptides. Cells were counted over 24h after exposure to the 14mer peptide EPL001 or its scrambled-sequence control EPL030 at 6μM final concentration or to the 20mer EPL120 at 5μM final concentration, compared to peptide-untreated controls.
Fig 7 Bone marrow cells in culture exposed to hexapeptides. Cells were counted over 24h after exposure to either EPL016 (= MKPLTG, the ‘Front 6’ of the 14mer EPL001) or EPL036 (= IEPVFT, the ‘Back 6’ of EPL030, the scrambled-sequence control of EPL001) at 1μM final concentration, compared to peptide-untreated controls.

[3] = system: PC3 cells; assay: MTS colorimetric viable cell assay, PC3; assay type: cell-based, human; conditions: PC3; 30 μM; 27h; MTS, 492 nm; triplicate
Experimental: (§1) Assays involving a range of peptides from 14mer down to 6mers assessed total viable PC3 or PNT2 cells using a 96-well plate MTS colorimetric assay (CellTiter 96 Aqueous One Solution Cell Proliferation Assay, Promega, Southampton, UK), with absorbance measured at 492 nm. Cells were seeded at 8,000 per well and grown for 27h. Peptides were administered at the outset to a final concentration of 30 μM (in 2 μl) to samples in triplicate. (A higher dosage was used than in the 14mer peptides study to shorten the timecourse of response.) Controls received buffer. Data are OD mean +/ − SEM, with statistical analysis by two tailed t-test. A time course study of the 14mers on PC3s, using the same technique, involved measurements at 24h and 48h.
(§2) Fig 5 Effects of a range of peptides on human prostate cancer cell growth in vitro. Assays involved a range of peptides from 14mers down to 6mers (Table 1), with viable cells assessed using a 96-well plate MTS colorimetric assay. Absorbance measured at 492 nm. Cells were seeded at 8,000 per well and grown for 27h. Peptides were administered at the outset to a final concentration of 30 μM (in 2 μl) to samples in triplicate. Controls received buffer. Data are OD mean +/- SEM, with statistical analysis by two tailed t-test. * p<0.05; **p<0.025.

[4] = system: PNT2 cells; assay: MTS colorimetric viable cell assay, PNT2; assay type: cell-based, human; conditions: 30 μM, 27h, 492 nm, triplicate
Experimental: as §1, §2

[5] = system: DU145 cells; assay: MTS viable cell assay, DU145 (Epistem); assay type: cell-based, human; conditions: DU145, 72h
Experimental: Further assays on human prostate cancer cells were conducted at a contract research organisation (Epistem, Manchester, UK). LNCaP or DU145 cells seeded at 3,000 cells/well across a 96-well plate were cultured in RPMI (phenol red free), 10% FCS, 1% sodium pyruvate, Pen/strep and L-glutamine for 24h before exposure to peptides, at a single dose level in the case of LNCaPs or multiple dose levels in the case of DU145s. (For dose levels see Results.) Controls received vehicle (1% PBS). For the DU145s peptide administration was repeated after 24h. 72h after the first administration (DU145s) or only administration (LNCaP) total viable cell numbers were measured colorimetrically (MTS) using a CellTiter 96 AQueous One Solution Cell Proliferation Assay (Promega, Southampton, UK), following manufacturer’s instructions. Briefly, the media on the plates was replaced with the CellTiter reagent diluted 1:5 in DMEM. The plates were returned to the incubator for 3 hours before reading absorbance at 492 nm on a FLUORstar OPTIMA (BMG Labtech). CellTiter data are the absorbance minus background values (CellTiter plus DMEM), expressed as (OD mean +/− SEM). Statistical analysis was by ANOVA, Dunnett’s multiple comparisons test.

| Substance | Increase in cumulative offspring vs untreated controls [1] [%] | Reduction of the population of rat bone marrow cells [2] [%] | Difference in percentage terms between control and test OD means [3] [%] | Difference in percentage terms between control and test OD means [4] [%] | Test mean OD vs control mean ([5]; 0.15 μM) [%] | Test mean OD vs control mean ([5]; 150 μM (highest concentration)) [%] |
| --- | --- | --- | --- | --- | --- | --- |
| MKPLTG [EPL016, MKPLTG, EPL001 Front 6] | 50 | 18 |  |  |  |  |
| MLKTGEKPV [EPL901, first 9 aa of EPL143, from sSgII’s second sorting domain] |  |  | −21.2 | −28.9 |  |  |
| MLKTGEKPVFKNNI [EPL143, Contiguous form of sSgII-14, an anagram of EPL001; benchmark for chi-squared test] |  |  | −10.2 | −20.6 | −4.3 | −18.7 |
